According to patent US9073853B2, “Cycloalkane carboxylic acid derivatives as CXCR3 receptor antagonists” (Sanofi, priority 2011, dated 2015):

What follows are compounds tested against human CXCR3-A receptor (Homo sapiens (Human), UniProt P49682) (assay: 125I-CXCL10 competition radioligand binding assay). Details: displacement of 125I-CXCL10 from membranes of CHO cells expressing human recombinant CXCR3-A.
Method: IC50 values were determined for the test compounds and used to explore the structure-activity relationships (SAR). […] This cell line was registered in Sanofi-Aventis cell line bank. […] Cell suspension was diluted with PBS and cells were collected with centrifugation at 230 g for 10 minutes at 10° C. with a Juan centrifuge. […] The supernatant was carefully collected and centrifuged at 100,000×g for 60 min at 4° with a Beckman Avanti J30 centrifuge. […] Protein concentration was determined with Bio-Rad protein assay (Cat No 500-0006). Membrane aliquots were stored at -80° C. […] The composition of the binding assay buffer was determined in a course of detailed optimization procedure. […] Binding reaction was initiated by adding of membranes (10-20 μg proteins, approximately 5×10^5 cell equivalents) to the reaction mixture. After 60 minutes of incubation at 25° C. the reaction was terminated by rapid filtration over GF/B glass fiber filters that were pre-soaked with 0.5% polyethyleneimine (Fluka Analytical, P3143) for 1 hour, using a Skatron cell harvester device. Filters then were washed with 8 ml of ice-cold wash buffer (modified binding buffer in which BSA was omitted and the concentration of NaCl was adjusted to 500 mM concentration). The radioactivity retained on the filters was measured by a Wizard 1470 Automatic Gamma counter. Test compounds were dissolved prior to the binding assay at a concentration of 10 mM in DMSO. Stock solutions were stored at -20° C. for not longer than 3 months. […] Before adding these solutions of test compound to the binding reaction mixture, an intermediate dilution procedure was applied, in which 30 μL of each solution sample was transferred into a dilution tube containing 970 μL of binding assay buffer. […] The IC50 values and Hill slopes for competition binding data were obtained using nonlinear four-parametric curve fitting method.

Sequence of human CXCR3-A receptor (P49682 whole entry): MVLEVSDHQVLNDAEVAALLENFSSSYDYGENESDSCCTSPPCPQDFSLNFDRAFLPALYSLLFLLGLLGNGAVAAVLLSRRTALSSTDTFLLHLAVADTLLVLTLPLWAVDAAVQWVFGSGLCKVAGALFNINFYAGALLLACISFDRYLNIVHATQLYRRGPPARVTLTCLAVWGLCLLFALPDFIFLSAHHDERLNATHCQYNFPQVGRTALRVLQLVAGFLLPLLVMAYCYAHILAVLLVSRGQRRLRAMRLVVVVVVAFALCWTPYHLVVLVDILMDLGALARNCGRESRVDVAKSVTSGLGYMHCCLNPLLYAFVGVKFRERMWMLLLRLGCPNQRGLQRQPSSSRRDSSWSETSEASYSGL

Point of comparison: `CCOC(=O)[C@H]1CC[C@H](CN(Cc2ccc(OCCN3C(=O)CCC3=O)c(OC)c2)C(C)c2ccc3c(c2)CCO3)CC1` (relative stereo) [Example 1.1, trans-4-[([1-(2,3-Dihydro-benzofuran-5-yl)-ethyl]-{4-[2-(2,5-dioxo-pyrrolidin-1-yl)-ethoxy]-3-methoxy-benzyl}-amino)-methyl]-cyclohexanecarboxylic acid ethyl ester], IC50 177 nM. Against it:
- COc1cc(CN(C[C@H]2CC[C@H](C(=O)O)CC2)C2CCc3cc(Cl)ccc32)ccc1CCCN1C(=O)CCC1=O (stereo in doubt) [Example 45, trans-4-[(((R)-5-Chloro-indan-1-yl)-{4-[3-(2,5-dioxo-pyrrolidin-1-yl)-propyl]-3-methoxy-benzyl}-amino)-methyl]-cyclohexanecarboxylic acid] — within 1.5-fold, 160 nM
- COc1cc(CN(C[C@H]2CC[C@H](C(=O)O)CC2)C2CCc3cc(Cl)ccc32)ccc1CCCN1C(=O)CCC1=O (stereo in doubt) [Example 46, trans-4-[(((S)-5-Chloro-indan-1-yl)-{4-[3-(2,5-dioxo-pyrrolidin-1-yl)-propyl]-3-methoxy-benzyl}-amino)-methyl]-cyclohexanecarboxylic acid] — 5.6-fold higher, 1000 nM
- COc1cc(CN(C[C@H]2CC[C@H](C(=O)O)CC2)[C@@H](C)c2ccc(Cl)cc2)ccc1OCCN1C(=O)CCC1=O [Example 5, trans-4-[([(S)-1-(4-Chloro-phenyl)-ethyl]-{4-[2-(2,5-dioxo-pyrrolidin-1-yl)-ethoxy]-3-methoxy-benzyl}-amino)-methyl]-cyclohexanecarboxylic acid] — 9.3-fold lower, 19 nM
- COc1cc(CN(C[C@H]2CC[C@H](C(=O)O)CC2)[C@H](C)c2ccc(Cl)cc2)ccc1OCCN1C(=O)CCC1=O [Example 6, trans-4-[([(R)-1-(4-Chloro-phenyl)-ethyl]-{4-[2-(2,5-dioxo-pyrrolidin-1-yl)-ethoxy]-3-methoxy-benzyl}-amino)-methyl]-cyclohexanecarboxylic acid] — 8.8-fold lower, 20 nM
- Cc1cc(CN(C[C@H]2CC[C@H](C(=O)O)CC2)[C@@H](C)c2ccc(Cl)cc2)ccc1OCCN1C(=O)CCC1=O [Example 7, trans-4-[([(S)-1-(4-Chloro-phenyl)-ethyl]-{4-[2-(2,5-dioxo-pyrrolidin-1-yl)-ethoxy]-3-methyl-benzyl}-amino)-methyl]-cyclohexanecarboxylic acid] — 4.7-fold lower, 38 nM
- Cc1cc(CN(C[C@H]2CC[C@@H](C(=O)O)CC2)[C@@H](C)c2ccc(Cl)cc2)ccc1OCCN1C(=O)CCC1=O [Example 8, cis-4-[([(S)-1-(4-Chloro-phenyl)-ethyl]-{4-[2-(2,5-dioxo-pyrrolidin-1-yl)-ethoxy]-3-methyl-benzyl}-amino)-methyl]-cyclohexanecarboxylic acid] — 22-fold higher, 3810 nM
- Cc1cc(CN(C[C@H]2CC[C@H](C(=O)O)CC2)[C@H](C)c2ccc(Cl)cc2)ccc1OCCN1C(=O)CCC1=O [Example 9, trans-4-[([(R)-1-(4-Chloro-phenyl)-ethyl]-{4-[2-(2,5-dioxo-pyrrolidin-1-yl)-ethoxy]-3-methyl-benzyl}-amino)-methyl]-cyclohexanecarboxylic acid] — 5.5-fold lower, 32 nM
- COc1cc(CN(C[C@H]2CC[C@H](C(=O)O)CC2)C2CCc3cc(Cl)ccc32)ccc1OCCN1C(=O)CCC1=O (stereo partly drawn) [Example 10, trans-4-[((5-Chloro-indan-1-yl)-{4-[2-(2,5-dioxo-pyrrolidin-1-yl)-ethoxy]-3-methoxy-benzyl}-amino)-methyl]-cyclohexane-carboxylic acid] — 2.8-fold lower, 64 nM
- COc1cc(CN(C[C@H]2CC[C@H](C(=O)O)CC2)[C@@H]2CCc3cc(Cl)ccc32)ccc1OCCN1C(=O)CCC1=O [Example 11, trans-4-[(((R)-5-Chloro-indan-1-yl)-{4-[2-(2,5-dioxo-pyrrolidin-1-yl)-ethoxy]-3-methoxy-benzyl}-amino)-methyl]cyclohexanecarboxylic acid] — within 1.5-fold, 200 nM
